PubChem BioAssay AID2060354 (Molecular Pharmacology Branch, DTP, NCI, 2025)

System: 519858-162-T-J1-PDC spheroid growth inhibition
Experiment: Anticancer human tumor 519858-162-T-J1-PDC patient-derived colon adenocarcinoma cell line growth inhibition [TAK]
Details: spheroids with HUVEC and MSC; for IC50: curve of first compound; for viability, T/C: stronger effect = lower value
Outline: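 Tumor cells were grown as spheroids with HUVEC and hMSC (60:25:15) and treated with targeted agents combined with TAK-243 or ipatasertib. Drugs were tested in half-log steps down from near the clinical Cmax, or from 10 microM where Cmax was unknown.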

[1] = second compound 0.3 µM, first compound 0.0316 µM
[2] = second compound 0.3 µM, first compound 0.1 µM
[3] = second compound 0.3 µM, first compound 0.316 µM
[4] = second compound 0.3 µM, first compound 1 µM
[5] = second compound 0.949 µM, first compound 0.0316 µM
[6] = second compound 0.949 µM, first compound 0.1 µM
[7] = second compound 0.949 µM, first compound 0.316 µM
[8] = second compound 0.949 µM, first compound 1 µM
[9] = second compound 3 µM, first compound 0.0316 µM
[10] = second compound 3 µM, first compound 0.1 µM
[11] = second compound 3 µM, first compound 0.316 µM
[12] = second compound 3 µM, first compound 1 µM
[13] = second compound 9.49 µM, first compound 0.0316 µM
[14] = second compound 9.49 µM, first compound 0.1 µM
[15] = second compound 9.49 µM, first compound 0.316 µM
[16] = second compound 9.49 µM, first compound 1 µM
[17] = second compound 30 µM, first compound 0.0316 µM
[18] = second compound 30 µM, first compound 0.1 µM
[19] = second compound 30 µM, first compound 0.316 µM
[20] = second compound 30 µM, first compound 1 µM
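Note: spheroids exposed to drugs for 7 days.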

Q: Which results are given for `COc1c(OCCCN2CCOCC2)ccc2c3n(c(=NC(=O)c4cnc(N)nc4)nc12)CCN3` + CC(C)NCC(C(=O)N1CCN(c2ncnc3c2C(C)CC3O)CC1)c1ccc(Cl)cc1?
A: IC50 (second compound 0.3 µM): 269 nM; IC50 (second compound 0.949 µM): 391 nM; IC50 (second compound 3 µM): > 1000 nM; IC50 (second compound 9.49 µM): > 1000 nM; IC50 (second compound 30 µM): 276 nM; viability, T/C (second compound 0.3 µM, first compound 0.00316 µM): 87.3%; viability, T/C (second compound 0.3 µM, first compound 0.01 µM): 78.4%; viability, T/C [1]: 65%; viability, T/C [2]: 57.2%; viability, T/C [3]: 49.5%; viability, T/C [4]: 42.5%; viability, T/C (second compound 0.949 µM, first compound 0.00316 µM): 76.6%; viability, T/C (second compound 0.949 µM, first compound 0.01 µM): 75.1%; viability, T/C [5]: 73.8%; viability, T/C [6]: 62.2%; viability, T/C [7]: 56.2%; viability, T/C [8]: 31.9%; viability, T/C (second compound 3 µM, first compound 0.00316 µM): 97.7%; viability, T/C (second compound 3 µM, first compound 0.01 µM): 71.4%; viability, T/C [9]: 68.1%; viability, T/C [10]: 61.5%; viability, T/C [11]: 51%; viability, T/C [12]: 50.1%; viability, T/C (second compound 9.49 µM, first compound 0.00316 µM): 83.5%; viability, T/C (second compound 9.49 µM, first compound 0.01 µM): 87.2%; viability, T/C [13]: 72%; viability, T/C [14]: 62.1%; viability, T/C [15]: 60.5%; viability, T/C [16]: 56.4%; viability, T/C (second compound 30 µM, first compound 0.00316 µM): 93.6%; viability, T/C (second compound 30 µM, first compound 0.01 µM): 77.6%; viability, T/C [17]: 73.6%; viability, T/C [18]: 59.1%; viability, T/C [19]: 43%; viability, T/C [20]: 47.8%

Q: Which results are given for `Cc1nc(NC(=O)N2CCCC2C(N)=O)sc1-c1ccnc(C(C)(C)C(F)(F)F)c1` (stereo not given) + CC(C)NCC(C(=O)N1CCN(c2ncnc3c2C(C)CC3O)CC1)c1ccc(Cl)cc1?
A: IC50 (second compound 0.3 µM): > 10000 nM; IC50 (second compound 0.949 µM): > 10000 nM; IC50 (second compound 3 µM): > 10000 nM; IC50 (second compound 9.49 µM): > 10000 nM; IC50 (second compound 30 µM): > 10000 nM; viability, T/C [1]: 110%; viability, T/C [2]: 88.2%; viability, T/C [3]: 81%; viability, T/C [4]: 81.7%; viability, T/C (second compound 0.3 µM, first compound 3.16 µM): 68.5%; viability, T/C (second compound 0.3 µM, first compound 10 µM): 52.8%; viability, T/C [5]: 85.3%; viability, T/C [6]: 94.8%; viability, T/C [7]: 104%; viability, T/C [8]: 79.9%; viability, T/C (second compound 0.949 µM, first compound 3.16 µM): 86.9%; viability, T/C (second compound 0.949 µM, first compound 10 µM): 66.2%; viability, T/C [9]: 80%; viability, T/C [10]: 77.5%; viability, T/C [11]: 76.9%; viability, T/C [12]: 75.1%; viability, T/C (second compound 3 µM, first compound 3.16 µM): 80.5%; viability, T/C (second compound 3 µM, first compound 10 µM): 65.7%; viability, T/C [13]: 85.6%; viability, T/C [14]: 74.2%; viability, T/C [15]: 81.4%; viability, T/C [16]: 74.4%; viability, T/C (second compound 9.49 µM, first compound 3.16 µM): 71.2%; viability, T/C (second compound 9.49 µM, first compound 10 µM): 62.7%; viability, T/C [17]: 94.6%; viability, T/C [18]: 82%; viability, T/C [19]: 91.5%; viability, T/C [20]: 80.2%; viability, T/C (second compound 30 µM, first compound 3.16 µM): 72.4%; viability, T/C (second compound 30 µM, first compound 10 µM): 72.2%
